Data on 23 molecules can be found in US12187728B2 (Raze Therapeutics, Inc., priority 2015, dated 2025).

Where only a bound is given, the exact number is not on record here.

This experiment concerns the target T1, Human MTHFD2 (Homo sapiens, UniProt P13995).
T1 construct: residues 36-350 in Uniport ID P13995; His6 (N); made in house; host or cells: E. coli
T1 sequence (P13995 36-350): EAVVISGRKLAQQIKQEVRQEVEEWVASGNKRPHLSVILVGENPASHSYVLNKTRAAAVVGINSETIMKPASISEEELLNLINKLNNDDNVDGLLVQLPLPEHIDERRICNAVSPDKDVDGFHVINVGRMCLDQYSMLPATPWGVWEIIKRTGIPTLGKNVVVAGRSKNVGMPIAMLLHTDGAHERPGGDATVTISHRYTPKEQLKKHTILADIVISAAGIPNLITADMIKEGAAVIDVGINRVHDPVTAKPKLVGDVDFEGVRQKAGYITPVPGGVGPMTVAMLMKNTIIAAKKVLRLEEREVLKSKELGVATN
Nature of the experiment: MTHFD2 Activity Assay (dehydrogenase activity, diaphorase/resazurin coupled fluorescence). It is filed as biochemical. The settings on record: inhibitory activity (IC50 and/or binding constant); 0.2 nM MTHFD2, 11 concentrations. In short, it runs like this:
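Resorufin fluorescence (ex 525, em 598 nm) reports NADH formed by the dehydrogenase via diaphorase coupling. Enzyme (0.2 nM, residues 36-350, N-His6) sat with compound 15 min before 70 μM CH2-THF and 1 mM NAD+ started a 30 min reaction. IC50s come from 4-parameter fits over 11 concentrations.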
For orientation: Alamar Blue is a resazurin reagent that responds to reducing activity.
Broadly, the IC50 is the concentration needed to halve the response being measured. Lower therefore signals inhibition by little substance. `Cn1c(N[C@@H]2CC[C@H](C(=O)O)C2)nc2c1c(=O)n(Cc1ccc(C(F)(F)F)cc1)c(=O)n2C` [Example 77, (1S,3R)-3-[(3,7-dimethyl-2,6-dioxo-1-{[4-(trifluoromethyl)phenyl]methyl}-2,3,6,7-tetrahydro-1H-purin-8-yl)amino]cyclopentane-1-carboxylic acid] displayed an IC50 of 1000 to 5000 nM.
Consider `Cn1c(NC2CCCC(N)C2)nc2c1c(=O)n(Cc1ccc(Cl)c(Cl)c1)c(=O)n2C` (centres unmarked) [Example 85, 8-((3-aminocyclohexyl)amino)-1-(3,4-dichlorobenzyl)-3,7-dimethyl-3,7-dihydro-1H-purine-2,6-dione], for which the IC50 was in the range of 1000 to 5000 nM.
`Cn1c(NC2CCNC2=O)nc2c1c(=O)n(Cc1ccc(Cl)c(Cl)c1)c(=O)n2C` (centres unmarked) [Example 86, 1-[(3,4-dichlorophenyl)methyl]-3,7-dimethyl-8-[(2-oxopyrrolidin-3-yl)amino]-2,3,6,7-tetrahydro-1H-purine-2,6-dione]: the IC50 lay in the range of 10 to 1000 nM.
Consider `Cn1c(N[C@H]2CC[C@@H](C(=O)O)C2)nc2c1c(=O)n(Cc1ccc3sccc3c1)c(=O)n2C` [Example 87, (1R,3S)-3-{[1-(1-benzothiophen-5-ylmethyl)-3,7-dimethyl-2,6-dioxo-2,3,6,7-tetrahydro-1H-purin-8-yl]amino}cyclopentane-1-carboxylic acid], for which the half-inhibitory concentration (IC50) is 10 to 1000 nM.
The value for `Cn1c(=O)n(Cc2ccc(Cl)c(Cl)c2)c(=O)c2[nH]c(NCCCO)nc21` [Example 90, 1-[(3,4-dichlorophenyl)methyl]-8-[(3-hydroxypropyl)amino]-3-methyl-2,3,6,7-tetrahydro-1H-purine-2,6-dione] was 1000 to 5000 nM; that for `Cn1c(N[C@H]2CCC[C@@H]2O)nc2c1c(=O)n(Cc1ccc(Cl)c(Cl)c1)c(=O)n2C` [Example 92, 1-[(3,4-dichlorophenyl)methyl]-8-{[(1S,2S)-2-hydroxycyclopentyl]amino}-3,7-dimethyl-2,3,6,7-tetrahydro-1H-purine-2,6-dione] was 10 to 1000 nM; that for `Cn1c(N[C@@H]2CCC[C@H]2O)nc2c1c(=O)n(Cc1ccc(Cl)c(Cl)c1)c(=O)n2C` [Example 93, 1-[(3,4-dichlorophenyl)methyl]-8-{[(1R,2R)-2-hydroxycyclopentyl]amino}-3,7-dimethyl-2,3,6,7-tetrahydro-1H-purine-2,6-dione] was 10 to 1000 nM.
The value for `Cn1c(N[C@H]2CCC[C@H]2O)nc2c1c(=O)n(Cc1ccc(Cl)c(Cl)c1)c(=O)n2C` [Example 94, 1-[(3,4-dichlorophenyl)methyl]-8-{[(1S,2R)-2-hydroxycyclopentyl]amino}-3,7-dimethyl-2,3,6,7-tetrahydro-1H-purine-2,6-dione] was 10 to 1000 nM; that for `COc1cc(Cn2c(=O)c3c(nc(NCCCO)n3C)n(C)c2=O)ccc1Cl` [Example 96, 1-[(4-chloro-3-methoxyphenyl)methyl]-8-[(3-hydroxypropyl)amino]-3,7-dimethyl-2,3,6,7-tetrahydro-1H-purine-2,6-dione] was 1000 to 5000 nM.
The value for `Cn1c(NCCCO)nc2[nH]c(=O)n(Cc3ccc(Cl)c(Cl)c3)c(=O)c21` [Example 97, 1-[(3,4-dichlorophenyl)methyl]-8-[(3-hydroxypropyl)amino]-7-methyl-2,3,6,7-tetrahydro-1H-purine-2,6-dione] was 1000 to 5000 nM; that for `CCOC(=O)Cn1c(=O)n(Cc2ccc(Cl)c(Cl)c2)c(=O)c2c1nc(NCCCO)n2C` [Example 98, Ethyl 2-(1-(3,4-dichlorobenzyl)-8-((3-hydroxypropyl)amino)-7-methyl-2,6-dioxo-1,2,6,7-tetrahydro-3H-purin-3-yl)acetate] was 5000 to 10000 nM.
The molecule `Cn1c(N[C@H]2CC[C@@H](O)C2)nc2c1c(=O)n(Cc1nc3ccccc3[nH]1)c(=O)n2C` [Example 99, 1-((1H-benzo[d]imidazol-2-yl)methyl)-8-((1S,3R)-3-hydroxycyclopentylamino)-3,7-dimethyl-1H-purine-2,6(3H,7H)-dione] gave an IC50 of 1000 to 5000 nM.
For `Cn1c(CO)nc2c1c(=O)n(Cc1ccc(Cl)c(Cl)c1)c(=O)n2C` [Example 100, 1-(3,4-dichlorobenzyl)-8-(hydroxymethyl)-3,7-dimethyl-1H-purine-2,6(3H,7H)-dione], the IC50 is 1000 to 5000 nM.
In turn, `Cn1c(CC(=O)O)nc2c1c(=O)n(Cc1ccc(Cl)c(Cl)c1)c(=O)n2C` [Example 101, 2-(1-(3,4-dichlorobenzyl)-3,7-dimethyl-2,6-dioxo-2,3,6,7-tetrahydro-1H-purin-8-yl)acetic acid] came in with a half-maximal inhibitory concentration (IC50) of 5000 to 10000 nM.
In the case of `Cn1c(NCCS(N)(=O)=O)nc2c1c(=O)n(Cc1ccc(Cl)c(Cl)c1)c(=O)n2C` [Example 102, 2-(1-(3,4-dichlorobenzyl)-3,7-dimethyl-2,6-dioxo-2,3,6,7-tetrahydro-1H-purin-8-ylamino)ethanesulfonamide], the IC50 fell in the range of 5000 to 10000 nM.
Then `COc1cc(Cn2c(=O)c3c(nc(N[C@@H]4CCC[C@H]4O)n3C)n(C)c2=O)ccc1Cl` [Example 103, 1-[(4-chloro-3-methoxyphenyl)methyl]-8-{[(1R,2R)-2-hydroxycyclopentyl]amino}-3,7-dimethyl-2,3,6,7-tetrahydro-1H-purine-2,6-dione], with 1000 to 5000 nM; and `Cn1c(NC[C@@H]2CCCO2)nc2c1c(=O)n(Cc1ccc(Cl)c(Cl)c1)c(=O)n2C` [Example 104, (S)-1-(3,4-dichlorobenzyl)-3,7-dimethyl-8-((tetrahydrofuran-2-yl)methylamino)-1H-purine-2,6(3H,7H)-dione], with 1000 to 5000 nM; and `Cn1c(NC[C@@H]2CCCO2)nc2c1c(=O)n(Cc1ccc(C(F)(F)F)cc1)c(=O)n2C` [Example 105, (S)-3,7-dimethyl-8-((tetrahydrofuran-2-yl)methylamino)-1-(4-(trifluoromethyl)benzyl)-1H-purine-2,6(3H,7H)-dione], with more than 10000 nM.
Then `Cn1c(NCC2(O)CCCCC2)nc2c1c(=O)n(Cc1ccc(Cl)c(Cl)c1)c(=O)n2C` [Example 106, 1-(3,4-dichlorobenzyl)-8-((1-hydroxycyclohexyl)methylamino)-3,7-dimethyl-1H-purine-2,6(3H,7H)-dione], with 1000 to 5000 nM.
In turn, `Cn1c(NCC2(O)CCCCC2)nc2c1c(=O)n(Cc1ccc(C(F)(F)F)cc1)c(=O)n2C` [Example 107, 8-((1-hydroxycyclohexyl)methylamino)-3,7-dimethyl-1-(4-(trifluoromethyl)benzyl)-1H-purine-2,6(3H,7H)-dione] came in with an IC50 of more than 10000 nM.
Turning to `Cn1c(N[C@@H]2CCCC[C@H]2O)nc2c1c(=O)n(Cc1ccc(Cl)c(Cl)c1)c(=O)n2C` [Example 108, 1-(3,4-dichlorobenzyl)-8-((1R,2R)-2-hydroxycyclohexylamino)-3,7-dimethyl-1H-purine-2,6(3H,7H)-dione], the half-maximal inhibitory concentration (IC50) lay within 1000 to 5000 nM.
The value for `Cn1c(Nc2ccc3c(c2)NC(=O)CCC3)nc2c1c(=O)n(Cc1ccc(Cl)c(Cl)c1)c(=O)n2C` [Example 109, 1-(3,4-dichlorobenzyl)-3,7-dimethyl-8-(2-oxo-2,3,4,5-tetrahydro-1H-benzo[b]azepin-8-ylamino)-1H-purine-2,6(3H,7H)-dione] was 10 to 1000 nM.
`Cn1c(N[C@@H]2CCC[C@@H]2C(=O)O)nc2c1c(=O)n(Cc1ccc(C(F)(F)F)cc1)c(=O)n2C` [Example 110, (1S,2R)-2-(3,7-dimethyl-2,6-dioxo-1-(4-(trifluoromethyl)benzyl)-2,3,6,7-tetrahydro-1H-purin-8-ylamino)cyclopentanecarboxylic acid]: the half-maximal inhibitory concentration (IC50) lay within 1000 to 5000 nM.
